The source of these data is patent publication US20240293447A1, “Materials and Methods for Prevention and Treatment of Diarrhea and Inflammation in the Gastrointestinal Tract” (University of Florida Research Foundation, Inc., priority 2012, published 2024).

The test system of this assay is colitis in mice. The assay can be described thus: Colitis in mice (dextran sulfate sodium (DSS)-induced colitis) after CaSR-activating nutrients. The class given is in vivo. Particulars: three-to-six-week-old mice received CaSR-activating nutrients (calcium, spermine, tryptophan, cinacalcet); figure legends only. As to the method:
Briefly, three-to-six-week-old, pre-pubertal rats and mice (WT v. villin/cre-floxed CaSR) received antigens or CaSR-activating nutrients (calcium, spermine, tryptophan, and cinacalcet). After treatment, mice and rats were sacrificed, and epithelial barrier, cytokine expression, dendritic cell, T cell, and B cell activation, and response to inflammatory stress were determined (FIG. 2).

Turning to `C[C@@H](NCCCc1cccc(C(F)(F)F)c1)c1cccc2ccccc12` [cinacalcet], the effect on colitis entry was “can be used to treat colitis”.
